According to patent US7858637B2, “Administration of TLR7 ligands and prodrugs thereof for treatment of infection by hepatitis C virus” (priority 2003, dated 2010):
Where a name gives a salt, the structure may show the parent alone.

Assays:
[1] = tested on: human peripheral blood mononuclear cells (PBMC); assay: PBMC assay of interferon alpha release (masking); format: cell-based; settings: Homo sapiens, PBMC; Table 9; 100 μM; 8 hours exposure; same blood donor; read-out: Amount of INFa relative to that induced by isatoribine at 100 μM
Description: A typical experiment would use human peripheral blood mononuclear cells (PBMC) isolated from a healthy donor and placed in replicate cell culture wells; typically, 2×10^6 to 5×10^6 cells are placed in each well. The PBMC are incubated in the absence of test compounds at 37° C. in a humidified atmosphere containing 5% CO2 for 24 hours to allow stabilization to the culture conditions, and then 100 micromolar isatoribine, the TLR7 ligand and a corresponding TLR7 ligand prodrug are added to separate wells containing PBMC from the same donor; untreated controls are included. The concentrations of TLR7 ligand and TLR7 ligand prodrug may be varied to suit the particular experiment, and the PBMC cultures are then incubated at 37° C. in a humidified atmosphere containing 5% CO2 for a period of time ranging from two hours to 48 hours. Samples of cell culture supernate media are taken during the incubation. These are assayed for cytokine production by ELISA. Additionally the amount of TLR7 ligand and TLR7 ligand prodrug remaining at the end of the incubation may be assayed by LC-MS. Cytokine production is calculated relative to production in the isatoribine control, following subtraction of the cytokine production in untreated controls.
Thus, if the TLR7 ligand generates more interferon alpha (a conveniently measured cytokine) than does the corresponding TLR7 ligand prodrug after a similar duration of exposure and concentration, the TLR7 ligand prodrug may be deemed a “masked” TLR7 ligand prodrug.

interferon alpha = assay: Interferon alpha plasma concentrations in mice; format: in vivo, mouse
Description: Not only can one measure the plasma concentrations of isatoribine arising from oral administration of the said prodrug(s) but also the extensive immunological research conducted in the mouse has provided reagents suitable for measuring the levels of interferon alpha, a cytokine of interest reflecting one of the desired biologic activities of isatoribine.

[2] = Toxicology studies, GI tolerance in beagle dogs; format: in vivo, beagle dog; settings: dogs, oral val-isatoribine
Description: We compared in the dog the oral toxicology of 21 and 24, and the intravenous toxicology of 21. We observed that the oral toxicology of 24 was much more like intravenous 21 than it was like oral 21.

[3] = isatoribine equivalent applied dose 8.1 mg/kg
[4] = isatoribine equivalent applied dose 16 mg/kg
[5] = isatoribine equivalent applied dose 32 mg/kg
[6] = isatoribine equivalent applied dose 64 mg/kg

## CC(C)[C@H](N)C(=O)OC[C@H]1O[C@@H](n2c(=O)sc3c(O)nc(N)nc32)[C@H](O)[C@@H]1O [Compound 24, 5-Amino-3-(5′-O-L-valinyl-β-D-ribofuranosyl)thiazolo[4,5-d]pyrimidine-2,7-dione Dihydrochloride]
[1]
  Emax at 100 µM: 1%
Interferon alpha; mice, oral dosing
  increase of the magnitude of both the average and peak interferon response over isatoribine: 100%
Interferon alpha; mice, oral, 50 mg/kg isatoribine molar equivalent vs intravenous isatoribine 25 mg/kg, FIG. 1
  levels of isatoribine and interferon relative to those after intravenous isatoribine: approximately 50%
Interferon alpha; oral dosing, data of Tables 15, 16 and 17
  mice with detectable interferon in their plasma: 10 of the 30
[2]; [3]
  Emesis or loose stool: Neg.
  GI lesions or irritation: Neg.
[2]; [4]
  Emesis or loose stool: Neg.
  GI lesions or irritation: Neg.
[2]; [5]
  Emesis or loose stool: Neg.
  GI lesions or irritation: Neg.
[2]; [6]
  Emesis or loose stool: Neg.
  GI lesions or irritation: Neg.
[2]; isatoribine equivalent applied dose 130 mg/kg
  GI lesions or irritation: Neg.
[2]; isatoribine equivalent applied dose 260 mg/kg
  GI lesions or irritation: Neg.
[2]; isatoribine equivalent applied dose 390 mg/kg
  GI lesions or irritation: Neg.
